Experimental findings from PubChem BioAssay (NCI) are described below.

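Tested at 5 concentrations; 48 h exposure; 96-well plates; endpoints linearly interpolated, else capped at highest concentration. At the TGI there is no net growth.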 Some results are limits rather than exact numbers.

Among the test systems are TK-10 renal; HCT-15 colon; HCT-116 colon; OVCAR-5 ovarian; NCI/ADR-RES ovarian; MDA-MB-435; HT29 colon; HS 578T breast; KM12 colon; SF-295 CNS.
Holding throughout (assay): NCI-60 cell line screen, 48 h

For `Cc1c(-c2ccccc2)c(C#N)c2nnc(C(N)=O)c(N)n12`, the TGI in the assay on TK-10 renal, in the assay with HCT-15 colon, in the assay on HCT-116 colon, in the assay with OVCAR-5 ovarian, with NCI/ADR-RES ovarian and with MDA-MB-435 was greater than 100 µM each time. Besides, the TGI in the assay on HT29 colon, in the assay on HS 578T breast, in the assay on KM12 colon and in the assay on SF-295 CNS was greater than 100 µM throughout.
With `COc1cc(C2SCC(=O)N2c2ccc(Oc3ccc(Cl)cc3)c(Cl)c2)cc(OC)c1OC` (stereo not given), the TGI with TK-10 renal is 33.9 µM; in the assay with HCT-15 colon it was greater than 100 µM; in the assay on HCT-116 colon, 35.5 µM; in the assay with OVCAR-5 ovarian it was 55.7 µM; with NCI/ADR-RES ovarian, 30.4 µM; with MDA-MB-435, 41.3 µM. Also, the TGI in the assay with HT29 colon was found to be 33.7 µM; with HS 578T breast, 40.7 µM; in the assay on KM12 colon, 46 µM; with SF-295 CNS, 34.6 µM.
For `CN(C)CCNc1ncnc2nc(-c3ccc4ccccc4c3)[nH]c12`, the TGI with TK-10 renal, with HCT-15 colon, with HCT-116 colon, in the assay with OVCAR-5 ovarian, with NCI/ADR-RES ovarian and in the assay with MDA-MB-435 was greater than 100 µM each time. Further, the TGI in the assay with HT29 colon, in the assay with HS 578T breast, in the assay with KM12 colon and in the assay with SF-295 CNS was greater than 100 µM in each case.
Turning to `Cn1nc(S(N)(=O)=O)s/c1=N/C(N)=S`, the TGI with TK-10 renal, with HCT-15 colon, in the assay with HCT-116 colon, with OVCAR-5 ovarian, in the assay on NCI/ADR-RES ovarian and with MDA-MB-435 was greater than 100 µM throughout. Further, the TGI with HT29 colon, in the assay with HS 578T breast, with KM12 colon and in the assay with SF-295 CNS was greater than 100 µM in each case.
In the case of `C[C@]12CC[C@H](O)CC1=CC[C@@H]1[C@@H]2CC[C@]2(C)/C(=N/OCCN3CCCC3)CC[C@@H]12`, the TGI with TK-10 renal came out at 63.6 µM; in the assay with HCT-15 colon it was 28.8 µM; in the assay with HCT-116 colon it was 28.6 µM; in the assay on OVCAR-5 ovarian it was 96.6 µM; in the assay with NCI/ADR-RES ovarian, 52.7 µM; in the assay on MDA-MB-435, 29.4 µM. Moreover, the TGI with HT29 colon was determined as 10.3 µM; in the assay with HS 578T breast, 83.8 µM; in the assay with KM12 colon, 26.9 µM; with SF-295 CNS, 40.6 µM.
As to `COc1ccc(OC)c2c1C1CCC(=O)N1CN2C(C)=O` (stereo not given), the TGI in the assay with TK-10 renal, in the assay on HCT-15 colon, with HCT-116 colon, in the assay on OVCAR-5 ovarian, in the assay with NCI/ADR-RES ovarian and in the assay on MDA-MB-435 was greater than 100 µM each time. The TGI with HT29 colon, in the assay on HS 578T breast, with KM12 colon and in the assay on SF-295 CNS was greater than 100 µM throughout.
Take `CC(C)N(C)C(=O)C12C3C4C1C1C2C3C41C#N` (stereo not given): the TGI in the assay on TK-10 renal, in the assay with HCT-15 colon, with HCT-116 colon, with OVCAR-5 ovarian, with NCI/ADR-RES ovarian and with MDA-MB-435 was greater than 100 µM in each case. The TGI in the assay with HT29 colon, in the assay with HS 578T breast, in the assay on KM12 colon and in the assay with SF-295 CNS was greater than 100 µM each time.
Turning to `NNc1nncn1N`, the TGI in the assay on TK-10 renal is greater than 100 µM; in the assay on HCT-15 colon, greater than 100 µM; with HCT-116 colon, greater than 100 µM; with OVCAR-5 ovarian, greater than 100 µM; with NCI/ADR-RES ovarian, greater than 100 µM; with MDA-MB-435 it was 36.3 µM. The TGI in the assay on HT29 colon, with HS 578T breast, with KM12 colon and with SF-295 CNS was greater than 100 µM each time.
In the case of `O=c1oc2ccc(Cl)cc2cc1-c1cn2cc(Cl)ccc2n1`, the TGI with TK-10 renal is greater than 100 µM; in the assay on HCT-15 colon it was greater than 100 µM; in the assay with HCT-116 colon, greater than 100 µM; with OVCAR-5 ovarian, greater than 100 µM; in the assay on NCI/ADR-RES ovarian it was greater than 85.9 µM; in the assay with MDA-MB-435, 1.18 µM. Further, the TGI in the assay on HT29 colon is greater than 58.8 µM; in the assay with HS 578T breast it was greater than 68.5 µM; with KM12 colon it was greater than 58.6 µM; with SF-295 CNS, greater than 100 µM.
`CC(C)CNC(=O)Cn1c(-c2ccccc2)cc2ccccc21`: the TGI in the assay on TK-10 renal, with HCT-15 colon, in the assay with HCT-116 colon, in the assay with OVCAR-5 ovarian, with NCI/ADR-RES ovarian and in the assay with MDA-MB-435 was greater than 100 µM in each case. In addition, the TGI in the assay with HT29 colon, with HS 578T breast, with KM12 colon and in the assay on SF-295 CNS was greater than 100 µM throughout.
In the case of `[N-]=[N+]=Nc1ccc(CNc2cc(=O)[nH]c(=O)[nH]2)cc1`, the TGI in the assay with TK-10 renal is greater than 100 µM; in the assay on HCT-15 colon it was greater than 100 µM; with HCT-116 colon, greater than 100 µM; with OVCAR-5 ovarian, greater than 100 µM; in the assay with NCI/ADR-RES ovarian it was greater than 100 µM; in the assay with MDA-MB-435, greater than 80 µM. Moreover, the TGI in the assay with HT29 colon, in the assay with HS 578T breast, in the assay on KM12 colon and in the assay with SF-295 CNS was greater than 100 µM throughout.
With `CCO/C(O)=C(/C(=N)N1CCCC1)C(=O)Nc1cccc(C(F)(F)F)c1`, the TGI with TK-10 renal, in the assay with HCT-15 colon, in the assay on HCT-116 colon, with OVCAR-5 ovarian, in the assay with NCI/ADR-RES ovarian and in the assay with MDA-MB-435 was greater than 100 µM throughout. The TGI in the assay with HT29 colon was greater than 100 µM; in the assay on HS 578T breast, 70.6 µM; in the assay on KM12 colon, greater than 100 µM; in the assay with SF-295 CNS, greater than 100 µM.
Turning to `Cc1c2c(OCCCCN3CCN(c4ncccn4)CC3)nn(C)c(=O)c2c(C)n1-c1ccccc1`, the TGI was 33.5 µM in the assay on TK-10 renal; 32.7 µM in the assay on HCT-15 colon; 31.7 µM in the assay on HCT-116 colon; 37.6 µM in the assay with OVCAR-5 ovarian; 46.2 µM in the assay with NCI/ADR-RES ovarian; 40.5 µM in the assay on MDA-MB-435. The TGI in the assay on HT29 colon was greater than 100 µM; with HS 578T breast, 67.8 µM; in the assay on KM12 colon it was 43.1 µM; in the assay with SF-295 CNS, 32.4 µM.
In the case of `O=C(CNc1ccc(Cl)cc1Cl)NC1C=Cc2ccc(S(=O)(=O)Nc3ccc(Cl)cc3Cl)cc2C1=O` (stereo not given), the TGI in the assay on TK-10 renal, with HCT-15 colon, in the assay on HCT-116 colon, with OVCAR-5 ovarian, with NCI/ADR-RES ovarian and with MDA-MB-435 was greater than 100 µM in each case. Also, the TGI with HT29 colon, in the assay with HS 578T breast, with KM12 colon and in the assay with SF-295 CNS was greater than 100 µM in each case.
